Results published in patent US20240246968A1, “SMALL MOLECULE INHIBITORS OF KRAS G12C MUTANT” (Merck Sharp & Dohme LLC, priority 2021, published 2024).

How the values were obtained:
[1] = molecular target: T1, interaction between recombinant K-Ras4B G12C mutant protein and cRAF RAS-binding domain (cRAF-RBD) (Homo sapiens, UniProt P01116, G12C); assay: Inhibitory activity on interaction between KRAS G12C and cRAF (Alpha technology); format: biochemical; conditions: GMPPNP-bound KRAS G12C incubated with compound at 25° C. for 1 hour, then cRAF-RBD; Alpha signal
T1 construct: made in house; host or cells: E. coli
Summary of the method: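 GMPPNP-loaded His-tagged KRAS G12C (aa 1-169, E. coli) preincubated with compound 1 h at 25° C in Tris pH 7.5, 100 mM NaCl, 1 mM MgCl2, TCEP, 0.1% Tween 20; cRAF-RBD (aa 50-132) added, 1.5 h RT, Alpha signal read. DMSO = 0%, GDP-bound KRAS = 100% inhibition; IC50 from dose titration fit.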

[2] = molecular target: Gppcp-bound recombinant K-Ras4B G12C mutant protein (amino acids 1-169, C51S/C80L/C118S) (Homo sapiens, UniProt P01116, C118S/C51S/C80L/G12C); assay: KRASG12C binding assay (LC-MS, compound binding rate); conditions: test compound final concentration 0.5 μM, 25° C., 1 hour
Summary of the method: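 Gppcp-bound K-Ras4B G12C (1-169; C51S/C80L/C118S), 50 nM in TBS with 0.1 mM TCEP, 0.25 mM MgCl2, 50 μM Gppcp, exposed to compound at 0.5 μM final for 1 h at 25 °C. Quenched with formic acid and analysed by intact-protein ESI LC-MS. Binding rate is the mono-adduct signal over total KRAS signal; graded A (≥80%) to E (<20%).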

MIA PaCa-2 cells = assay: Growth inhibition activity on KRAS-G12C mutant cell line (MIA PaCa-2), CellTiter-Glo 3D; format: cell-based, human; conditions: MIA PaCa-2, 3-day culture with compound
Summary of the method: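 Cells in RPMI1640 with 10% FBS were seeded in U-bottom plates and cultured 1 day at 37 °C, 5% CO2, then exposed to compound (0.2% DMSO final) for 3 more days. Viability read by CellTiter-Glo 3D luminescence; IC50 from growth inhibition relative to untreated wells.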

SMILES	IC50 [1]	IC50 (MIA PaCa-2 cells; Homo sapiens, MIA PaCa-2, 72 h)	IC50 (MIA PaCa-2 cells)	binding rate [2]
Cc1nc2cc(-c3cccn4c(C(=O)c5cc(F)c(NC(=O)/C=C/CNC6(CO)CCCCC6)c(F)c5)ccc34)c(C(F)(F)F)cc2n1C [Example 69, (E)-N-(4-(8-(1,2-dimethyl-6-(trifluoromethyl)-1H-benzo[d]imidazol-5-yl)indolizine-3-carbonyl)-2,6-difluorophenyl)-4-((1-(hydroxymethyl)cyclohexyl)amino)but-2-enamide]	87 nM	340 nM	–	A (A binding rate of 80% or more is rated “A”)
CO[C@H]1CC[C@H](NC/C=C/C(=O)Nc2c(F)cc(C(=O)c3cnc4c(-c5cc6nc7n(c6cc5C(F)(F)F)CCC7)cccn34)cc2F)CC1 [Example 6, (E)-N-(2,6-difluoro-4-(8-(7-(trifluoromethyl)-2,3-dihydro-1H-benzo[d]pyrrolo[1,2-a]imidazol-6-yl)imidazo[1,2-a]pyridine-3-carbonyl)phenyl)-4-(((1r,4r)-4-methoxycyclohexyl)amino)but-2-enamide]	70 nM	94 nM	–	B (a binding rate of 60% or more and less than 80% is rated “B”)
CO[C@H]1CC[C@H](NC/C=C/C(=O)Nc2c(F)cc(C(=O)c3ccc4c(-c5cc6[nH]c(=O)n(C)c6cc5C(F)(F)F)cccn34)cc2F)CC1 [Example 110, (E)-N-(2,6-difluoro-4-(8(1-methyl-2-oxo-6-(trifluoromethyl)-2,3-dihydro-1H-benzo[d]imidazol-5-yl)indolizine-3-carbonyl)phenyl)-4-(((1r,4r)-4-methoxycyclohexyl)amino)but-2-enamide]	80.7 nM	182 nM	–	A (A binding rate of 80% or more is rated “A”)
CC(C)(C)NC/C=C/C(=O)Nc1c(F)cc(C(=O)c2cnc3c(-c4cc5nc6n(c5cc4C(F)(F)F)CCC6)cccn23)cc1F [Example 7, (E)-4-(tert-butylamino)-N-(2,6-difluoro-4-(8-(7-(trifluoromethyl)-2,3-dihydro-1H-benzo[d]pyrrolo[1,2-a]imidazol-6-yl)imidazo[1,2-a]pyridine-3-carbonyl)phenyl)but-2-enamide]	69 nM	160 nM	–	B (a binding rate of 60% or more and less than 80% is rated “B”)
COc1cc2c(c(F)c1-c1cccn3c(C(=O)c4cc(F)c(NC(=O)/C=C/CNC5(C)CC5)c(F)c4)ccc13)c(=O)ncn2C [Example 114]	18.9 nM	1070 nM	–	A (A binding rate of 80% or more is rated “A”)
Cc1cc2c(ncn2C)c(C)c1-c1cccn2c(C(=O)c3cc(F)c(NC(=O)/C=C/CNC(C)(C)C)c(F)c3)ccc12 [Example 29, (E)-4-(tert-butylamino)-N-(2,6-difluoro-4-(8-(1,4,6-trimethyl-1H-benzo[d]imidazol-5-vi)indolizine-3-carbonyl)phenyl)but-2-enamide]	90 nM	120 nM	–	A (A binding rate of 80% or more is rated “A”)
Cc1nc2cc(-c3cccn4c(C(=O)c5cc(F)c(NC(=O)/C=C/CNC6(CO)CCOCC6)c(F)c5)ccc34)c(C(F)(F)F)cc2n1C [Example 70, (E)-N-(4-(8-(1,2-dimethyl-6-(trifluoromethyl)-1H-benzo[d]imidazol-5-yl)indolizine-3-carbonyl)-2,6-difluorophenyl)-4-((4-(hydroxymethyl)tetrahydro-2H-pyran-4-yl)amino)but-2-enamide]	70 nM	210 nM	–	A (A binding rate of 80% or more is rated “A”)
C/C=C/c1cc(C(=O)c2cc(F)c(NC(=O)/C=C/CN[C@H]3CC[C@H](OC)CC3)c(F)c2)n2cccc(-c3c(C)cc4c(nc(C)n4C)c3Cl)c12 [Example 96, (E)-N-(4-(8-(4-chloro-1,2,6-trimethyl-1H-benzo[d]imidazol-5-yl)-1-((E)-prop-1-en-1-yl)indolizine-3-carbonyl)-2,6-difluorophenyl)-4-(((1r,4r)-4-methoxycyclohexyl)amino)but-2-enamide]	36 nM	130 nM	–	A (A binding rate of 80% or more is rated “A”)
CO[C@H]1CC[C@H](NC/C=C/C(=O)Nc2c(F)cc(C(=O)c3ccc4c(-c5cc6nc(C)n(C)c6cc5C(F)(F)F)cccn34)cc2F)CC1 [Example 2, (E)-N-(4-(8-(1,2-dimethyl-6-(trifluoromethyl)-1H-benzo[d]imidazol-5-yl)indolizine-3-carbonyl)-2,6-difluorophenyl)-4-(((1r,4r)-4-methoxycyclohexyl)amino)but-2-enamide]	60 nM	57 nM	–	A (A binding rate of 80% or more is rated “A”)
CO[C@H]1CC[C@H](NC/C=C/C(=O)Nc2c(F)cc(C(=O)c3ccc4c(-c5c(C(F)(F)F)cc6c(ncn6C)c5Cl)cccn34)cc2F)CC1 (single isomer, unassigned) [Example 28-2, (E)-N-(4-(8-(4-chloro-1-methyl-6-(trifluoromethyl)-1H-benzo[d]imidazol-5-yl)indolizine-3-carbonyl)-2,6-difluorophenyl)-4-(((1r,4r)-4-methoxycyclohexyl)amino)but-2-enamide]	800 nM	–	940 nM	A (A binding rate of 80% or more is rated “A”)
CO[C@H]1CC[C@H](NC/C=C/C(=O)Nc2c(F)cc(C(=O)c3cc(C(N)=O)c4c(-c5c(C)cc6c(nc(C)n6C)c5Cl)cccn34)cc2F)CC1 [Example 107, 8-(4-chloro-1,2,6-trimethyl-1H-benzo[d]imidazol-5-yl)-3-(3,5-difluoro-4-((E)-4-(((1r,4r)-4-methoxycyclohexyl)amino)but-2-enamido)benzoyl)indolizine-1-carboxamide]	37.6 nM	569 nM	–	A (A binding rate of 80% or more is rated “A”)

More lines, main results first:

IC50 [1]	IC50 (MIA PaCa-2 cells; Homo sapiens, MIA PaCa-2, 72 h)	IC50 (MIA PaCa-2 cells)	SMILES	binding rate [2]
53 nM	–	73 nM	COc1cc2c(nc(C)n2C)c(Cl)c1-c1cccn2c(C(=O)c3cc(F)c(NC(=O)/C=C/CN[C@H]4CC[C@H](OC)CC4)c(F)c3)ccc12 (single isomer, unassigned) [Example 35-2, (E)-N-(4-(8-(4-chloro-6-methoxy-1,2-dimethyl-1H-benzo[d]imidazol-5-yl)indolizine-3-carbonyl)-2,6-difluorophenyl)-4-(((1r,4r)-4-methoxycyclohexyl)amino)but-2-enamide]	A (A binding rate of 80% or more is rated “A”)
43 nM	–	130 nM	CO[C@H]1CC[C@H](NC/C=C/C(=O)Nc2c(F)cc(C(=O)c3ccc4c(-c5c(C(C)C)cc6c(nc(C)n6C)c5Cl)cccn34)cc2F)CC1 (single isomer, unassigned) [Example 71-1, (E)-N-(4-(8-(4-chloro-6-isopropyl-1,2-dimethyl-1H-benzo[d]imidazol-5-yl)indolizine-3-carbonyl)-2,6-difluorophenyl)-4-(((1r,4r)-4-methoxycyclohexyl)amino)but-2-enamide]	A (A binding rate of 80% or more is rated “A”)
32 nM	–	44 nM	COc1c(-c2cccn3c(C(=O)c4cc(F)c(NC(=O)/C=C/CN[C@H]5CC[C@H](OC)CC5)c(F)c4)ccc23)c(C)cc2c1nc(C)n2C (single isomer, unassigned) [Example 39-2, (E)-N-(2,6-difluoro-4-(8-(4-methoxy-1,2,6-trimethyl-1H-benzo[d]imidazol-5-yl)indolizine-3-carbonyl)phenyl)-4-(((1r,4r)-4-methoxycyclohexyl)amino)but-2-enamide]	A (A binding rate of 80% or more is rated “A”)
74 nM	–	50 nM	COc1cc2c(ncn2C)c(Cl)c1-c1cccn2c(C(=O)c3cc(F)c(NC(=O)/C=C/CN[C@H]4CC[C@H](OC)CC4)c(F)c3)ccc12 (single isomer, unassigned) [Example 41-2, (E)-N-(4-(8-(4-chloro-6-methoxy-1-methyl-1H-benzo[d]imidazol-5-yl)indolizine-3-carbonyl)-2,6-difluorophenyl)-4-(((1r,4r)-4-methoxycyclohexyl)amino)but-2-enamide]	A (A binding rate of 80% or more is rated “A”)
220 nM	–	570 nM	CO[C@H]1CC[C@H](NC/C=C/C(=O)Nc2c(F)cc(C(=O)c3ccc4c(-c5c(C(C)C)cc6c(nc(C)n6C)c5Cl)cccn34)cc2F)CC1 (single isomer, unassigned) [Example 71-2, (E)-N-(4-(8-(4-chloro-6-isopropyl-1,2-dimethyl-1H-benzo[d]imidazol-5-yl)indolizine-3-carbonyl)-2,6-difluorophenyl)-4-(((1r,4r)-4-methoxycyclohexyl)amino)but-2-enamide]	A (A binding rate of 80% or more is rated “A”)
